From patent publication US6342502B1, “Thieno[2,3-d]pyrimidine diones and their use in the treatment of reversible obstructive airways diseases” (AstraZeneca AB, priority 1997, dated 2002)

melting point | Structure (SMILES)
228 to 229 °C | CC(C)Cn1c(=O)n(C)c(=O)c2c(Sc3cccc[n+]3[O-])c(Cc3cccc4ccccc34)sc21 [Example 38, 2-{[1,2,3,4-Tetrahydro-3-methyl-1-(2-methylpropyl)-6-(1-naphthalenylmethyl)-2,4-dioxothieno[2,3-d]pyrimidin-5-yl]thio}pyridine N-oxide]
72 to 73 °C | CC(C)Cn1c(=O)n(C)c(=O)c2cc(Cc3ccccc3)sc21 [Example 12, 6-Benzyl-3-methyl-1-(2-methylpropyl)thieno[2,3-d]pyrimidine-2,4(1H,3H)-dione]
149 to 150 °C | CC(C)Cn1c(=O)n(C)c(=O)c2c(Sc3cccc(N)c3)c(Cc3cccc4ccccc34)sc21 [Example 31, 5-[(3-Aminophenyl)thio]-3-methyl-1-(2-methylpropyl)-6-(1-naphthalenylmethyl)-thieno[2,3-d]pyrimidine-2,4-(1H, 3H)-dione]
91 to 93 °C | CC(C)n1c(=O)n(C)c(=O)c2cc(Cc3ccccc3)sc21 [Example 13, 3-Methyl-1-(1-methylethyl)-6-(phenylmethyl)thieno[2,3-d]pyrimidine-2,4(1H,3H)-dione]
